{
  "source": "patent US20110086920A1",
  "about": "“Gamma Glutamylcysteine Treatment or Prevention of Oxidative Injury” (priority 2007, published 2011)",
  "key": {"[1]": {"test": "Plasma γ-glutamylcysteine levels after intravenous administration in rats", "format": "in vivo", "experimental": "(§1) FIG. 2: IV γ-glutamylcysteine Supplementation in Rats. Two rats were administered γ-glutamylcysteine intravenously. […] Plasma was collected at 0, 15, 30, 60, 90, and 120 minutes post-administration and assayed for γ-glutamylcysteine levels.\n(§2) Two rats were administered γ-glutamylcysteine intravenously. […] Plasma was collected at 0, 15, 30, 60, 90, and 120 minutes post-administration and assayed for γ-glutamylcysteine levels."}, "[2]": {"tested_on": "neuronal cells", "test": "F2-IsoPs level (oxidative stress) in neuronal cells exposed to H2O2", "format": "cell-based", "conditions": "neuronal cells pretreated with GGC 500 μM four hours prior to exposure to H2O2", "text": "To quantify the oxidative stress response, as well as modification of this response by γ-glutamylcysteine supplementation, the inventors will measure isoprostane and isofuran levels. Isoprostanes are prostaglandin like compounds that are produced without cyclooxygenase by free radical induced peroxidation of arachidonic acid. Prostaglandin F2α like compounds, termed F2-isoprostanes (F2IsoPs) have been shown both in vitro and in vivo to be an accurate measure of oxidative stress."}, "[3]": {"tested_on": "glutathione", "test": "Tissue glutathione levels after intravenous γ-glutamylcysteine supplementation in rats", "format": "in vivo", "conditions": "for Tissue Glutathione Concentration: rats 400 mg/kg IV, mean (95% CI)", "experimental": "Ten rats were also administered 400 mg/kg of γ-glutamylcysteine intravenously. Major organ tissues were harvested from these rats at 0, 30, 60, 90, 120, and 240 minutes and assayed for glutathione concentration. […] [table]"}, "[4]": {"conditions": "rat, in vivo", "experimental": "as §1, §2"}, "[5]": {"tested_on": "Neurons and Astrocytes", "test": "Cell death after H2O2 oxidative stress in vitro (MTT, LDH, GSH assays)", "format": "cell-based", "conditions": "γ-glutamylcysteine 500 μM; 10 μM H2O2", "text": "FIGS. 1A-F: Effects of γ-glutamylcysteine on Neurons and Astrocytes. Protection of cells as measured by MTT (3-(4,5-Dimethylthiazol-2-yl)-2,5-diphenyltetrazolium bromide) assay, GSH (glutathione) assay, and LDH (lactate dehydrogenase) assay."}},
  "data": [
    {"smiles": "N[C@@H](CCC(=O)N[C@@H](CS)C(=O)O)C(=O)O", "note": "[γ-glutamylcysteine]", "values": [
      {"measurement": "plasma γ-glutamylcysteine levels", "setting": "[1]; rats", "result": "significant elevation"},
      {"measurement": "time of peak plasma γ-glutamylcysteine concentration post-injection", "setting": "[1]; two rats, plasma at 0-120 min", "result": 30, "unit": "min"},
      {"measurement": "level of F2-IsoPs (oxidative stress)", "setting": "[2]", "result": "reduced"},
      {"measurement": "Tissue Glutathione Concentration", "setting": "[3]; Brain, 0 min, n=5", "result": "57.3 (3.3-111.3) μM"},
      {"measurement": "Tissue Glutathione Concentration", "setting": "[3]; Brain, 60 min, n=4", "result": "302.3 (190.0-414.5) μM"},
      {"measurement": "Tissue Glutathione Concentration", "setting": "[3]; Brain, 90 min, n=2", "result": "146.9 (−1200.5-1494.3) μM"},
      {"measurement": "Tissue Glutathione Concentration", "setting": "[3]; Brain, 120 min, n=2", "result": "170.7 (152.0-189.5) μM"},
      {"measurement": "Tissue Glutathione Concentration", "setting": "[3]; Brain, 240 min, n=2", "result": "110.7 (54.1-167.3) μM"},
      {"measurement": "Tissue Glutathione Concentration", "setting": "[3]; GI, 0 min, n=5", "result": "12.9 (7.2-18.5) μM"},
      {"measurement": "Tissue Glutathione Concentration", "setting": "[3]; GI, 60 min, n=4", "result": "189.8 (−5.5-385.0) μM"},
      {"measurement": "Tissue Glutathione Concentration", "setting": "[3]; GI, 90 min, n=2", "result": "166.8 (−1699.0-2032.5) μM"},
      {"measurement": "Tissue Glutathione Concentration", "setting": "[3]; GI, 120 min, n=2", "result": "14.0 (−1.6-29.6) μM"},
      {"measurement": "Tissue Glutathione Concentration", "setting": "[3]; GI, 240 min, n=2", "result": "18.5 (−100.3-137.3) μM"},
      {"measurement": "Tissue Glutathione Concentration", "setting": "[3]; Heart, 0 min, n=5", "result": "210.9 (34.4-387.4) μM"},
      {"measurement": "Tissue Glutathione Concentration", "setting": "[3]; Heart, 60 min, n=4", "result": "353.4 (220.9-486.0) μM"},
      {"measurement": "Tissue Glutathione Concentration", "setting": "[3]; Heart, 90 min, n=2", "result": "658.9 (504.5-813.2) μM"},
      {"measurement": "Tissue Glutathione Concentration", "setting": "[3]; Heart, 120 min, n=2", "result": "165.9 (149.4-182.4) μM"},
      {"measurement": "Tissue Glutathione Concentration", "setting": "[3]; Heart, 240 min, n=2", "result": "278.1 (170.7-385.4) μM"},
      {"measurement": "Tissue Glutathione Concentration", "setting": "[3]; Kidney, 0 min, n=5", "result": "14.9 (4.5-25.2) μM"},
      {"measurement": "Tissue Glutathione Concentration", "setting": "[3]; Kidney, 60 min, n=4", "result": "13.5 (−9.1-36.2) μM"},
      {"measurement": "Tissue Glutathione Concentration", "setting": "[3]; Kidney, 90 min, n=2", "result": "39.1 (−195.0-273.2) μM"},
      {"measurement": "Tissue Glutathione Concentration", "setting": "[3]; Kidney, 120 min, n=2", "result": "13.4 (−16.9-43.6) μM"},
      {"measurement": "Tissue Glutathione Concentration", "setting": "[3]; Kidney, 240 min, n=2", "result": "10.2 (−8.9-29.3) μM"},
      {"measurement": "Tissue Glutathione Concentration", "setting": "[3]; Liver, 0 min, n=5", "result": "2162.4 (1490.3-2834.5) μM"},
      {"measurement": "Tissue Glutathione Concentration", "setting": "[3]; Liver, 60 min, n=4", "result": "5066.4 (−85.9-10218.8) μM"},
      {"measurement": "Tissue Glutathione Concentration", "setting": "[3]; Liver, 90 min, n=2", "result": "10832.6 (9616.0-12049.1) μM"},
      {"measurement": "Tissue Glutathione Concentration", "setting": "[3]; Liver, 120 min, n=2", "result": "2990.0 (2239.8-3740.1) μM"},
      {"measurement": "Tissue Glutathione Concentration", "setting": "[3]; Liver, 240 min, n=2", "result": "4213.7 (−6431.5-14858.8) μM"},
      {"measurement": "Tissue Glutathione Concentration", "setting": "[3]; Lung, 0 min, n=5", "result": "142.2 (50.8-233.7) μM"},
      {"measurement": "Tissue Glutathione Concentration", "setting": "[3]; Lung, 60 min, n=4", "result": "293.5 (248.6-338.4) μM"},
      {"measurement": "Tissue Glutathione Concentration", "setting": "[3]; Lung, 90 min, n=2", "result": "412.2 (−571.1-1395.4) μM"},
      {"measurement": "Tissue Glutathione Concentration", "setting": "[3]; Lung, 120 min, n=2", "result": "166.4 (−58.3-391.0) μM"},
      {"measurement": "Tissue Glutathione Concentration", "setting": "[3]; Lung, 240 min, n=2", "result": "93.2 (−261.7-448.1) μM"},
      {"measurement": "Tissue Glutathione Concentration", "setting": "[3]; Muscle, 0 min, n=5", "result": "228.5 (125-0-331.9) μM"},
      {"measurement": "Tissue Glutathione Concentration", "setting": "[3]; Muscle, 60 min, n=4", "result": "307.6 (−1.1-616.3) μM"},
      {"measurement": "Tissue Glutathione Concentration", "setting": "[3]; Muscle, 90 min, n=2", "result": "654.5 (44.8-1264.2) μM"},
      {"measurement": "Tissue Glutathione Concentration", "setting": "[3]; Muscle, 120 min, n=2", "result": "170.5 (−137.5-478.6) μM"},
      {"measurement": "Tissue Glutathione Concentration", "setting": "[3]; Muscle, 240 min, n=2", "result": "21.9 (−16.3-60.1) μM"},
      {"measurement": "mean glutathione levels in brain, heart, lung, liver, kidney, gastrointestinal and muscle tissues", "setting": "[3]; rats, 400 mg/kg intravenous", "result": "increased"},
      {"measurement": "tissue glutathione levels", "setting": "[3]; rats, intravenous", "result": "significant elevation"},
      {"measurement": "tolerability of intravenous supplementation", "setting": "[4]", "result": "well-tolerated"},
      {"measurement": "clinically visible signs of toxicity", "setting": "[4]; iv", "result": "no clinically visible signs of toxicity"},
      {"measurement": "cell death after exposure to H2O2", "setting": "[5]", "result": "significantly reduce cell death"}
    ]}
  ]
}
